Source: patent publication US11307205B2, “Non-radioactive cytotoxicity assays” (University of Southern California, priority 2016, dated 2022)

Tests used:
L428-GLuc cells = assay: Matador assay, antibody drug conjugate induced cell death, L428; type: cell-based; details: 5 days of drug treatment
Experimental: (§1) We next used the Matador cytotoxicity assay to measure cell death induced by CD30-directed antibody-drug-conjugate (ADC), Brentuximab vedotin (Adcetris). […] Similarly, Jurkat cells were transduced with MSCVhygro-GLuc-HA-G02 (SEQ ID NO: 95) retroviral vector and selected with hygromycin to generate Jurkat-GLuc stable cell line. These GLuc-expressing target cells were plated at a concentration of 10×10^5 cells/well in a flat-bottom 24 well plate in 500 μl of phenol-red-free RPMI medium with 10% FBS and treated with the indicated dose of Brentuximab vedotin. After 5 days of drug treatment, the cells were mixed well, collected in 1.5 ml microfuge tubes and divided into 3 groups of 166 μl each. For the first group, the cells with cell supernatant were directly assayed for luciferase activity by plating 30 μl of cells/well in a white 384 well plate in triplicate. For the second group, 166 μl of cells were centrifuged and only cell supernatants were collected in a new tube and plated at 30 μl/well in triplicate in a white 384 well plate. […] The luciferase activity was precisely measured by BioTek synergy plate reader by injecting 0.5× CTZ assay buffer containing native coeloentrazine into each well of the 384 well plate in a well mode. […]

KMH2-GLuc cells = assay: Matador assay, antibody drug conjugate induced cell death, KMH2; type: cell-based; details: 5 days of drug treatment
Experimental: as §1

Jurkat-GLuc cells = assay: Matador assay, antibody drug conjugate induced cell death, Jurkat; type: cell-based; details: 5 days of drug treatment
Experimental: as §1

BC-3-pLenti-GLuc cells = assay: Matador assay, drug induced cytotoxicity, BC-3; type: cell-based; details: 96 hours, different doses
Experimental: (§2) The cell pellets were lysed in 1× Renilla Luciferase Assay Lysis Buffer by diluting one volume of 5× Renilla Luciferase Assay Lysis Buffer (Promega, Cat #E2820) into four volumes of distilled water. GLuc activity was measured in the cellular supernatants and cell lysates fractions separately in triplicate by addition of 0.25× coelentrazine assay buffer (15 μl of assay buffer added to 15 μl of sample in a 384 well plate) to each fraction. For each sample, the average GLuc activity in the cellular supernatant was divided by the average GLuc activity in the cell lysates to normalize for difference in the number of GLuc expressing cells.

BCBL-1-pLenti-GLuc cells = assay: Matador assay, drug induced cytotoxicity, BCBL-1; details: 96 hours, different doses
Experimental: as §2

[1] = test system: CAR CD8SP2-CD19MM-(vL-vH)-Myc-BBz-T2A-PAC T cell induced death of RAJI cells stably expressing GLuc; assay: Matador assay, drug modulation of CAR-T cell induced lysis of RAJI-GLuc cells; type: cell-based, Human; details: E:T 5:1, 4 hours co-culture; Dasatinib 50 nM and 100 nM
Experimental: Human peripheral blood T cells isolated using CD3 magnetic beads were infected with lentiviruses expressing the CAR construct CD8SP2-CD19MM-(vL-vH)-Myc-BBz-T2A-PAC [SEQ ID NO: 82] targeting CD19 and selected with puromycin. CAR-T cells were pre-incubated with the indicated concentrations of Dasatinib and Imatinib for approximately 30 min at 37° C. The drug-treated and untreated T cells were plated in a white 384-well plate. […] Dasatinib (Das) and Imatinib (Imat) were added to the wells to maintain the final concentrations as indicated. […] Therefore, the assay can be used to screen for and identify candidate compounds that modulate the activity of cytotoxic cells, such as cytotoxic T cells, NK cells, CAR-T cells and T cells expressing engineered TCRs.

[2] = test system: RAJI cells expressing GLuc; assay: Antibody-dependent cellular cytotoxicity (ADCC) Matador assay; type: cell-based
Experimental: Antibody-dependent cellular cytotoxicity (ADCC) assay was performed performed essentially as described earlier (Teeling, French et al. 2004). To determine the cytotoxicity of Rituximab monoclonal antibody, the cell death was assessed using Matador assay. Peripheral Blood Mononuclear Cells (PBMC) were isolated by Ficoll-Hypaque gradient centrifugation from buffy coat cells obtained from a de-identified healthy donor as a source of natural effector. […] The cells were either left untreated, or treated with 1 μg/ml or 10 μg/ml of Rituximab. The plates were incubated at 37° C. for 4 hours in a CO2 incubator. After incubation for 4 hours, the cell death was assessed by luciferase assay by addition of CTZ assay buffer containing native coelentrazine to the wells as described earlier.

[3] = Stability of luciferases in cell culture supernatants at 37° C. under Matador assay conditions; type: physicochemical; details: for time for which luminescence was stable: cell culture supernatants of K562 cells co-cultured with NK92MI
Experimental: Post-incubation, the cell-free supernatants were divided into 7 different tubes and frozen immediately at −80° C. The tubes were then incubated at 37° C. for 0, 0.5, 1, 2, 4, 6, and 24 hours.
Although thermostable luciferases are stable at 37° C., it was not obvious whether thermostability is the only criteria for stability of a reporter under the conditions used in the cytotoxicity assays. Thus, a thermostable luciferase could be degraded under the culture conditions of the cytotoxicity assay due to the activity of proteases that are present in the serum or are released during the process of cell death. Therefore, to examine whether thermostable luciferases are suitable for inclusion in the Matador cytotoxicity assay, K562 cells stably expressing LucPPe-146-1H2 mutant were plated in a 6-well plate, treated with media alone (control) or co-cultured with NK92MI at Effector:Target (E:T) ratio of 1:1 for 4 hours. After incubation, cell-free supernatants were transferred into 7 different tubes and frozen immediately at −80° C. The tubes were directly transferred to 37° C. (from −80° C.) and were incubated for indicated time periods (0 to 24 hours). The luminescence was measured by adding D-luciferin containing assay buffer directly to each well in well mode. […] Furthermore, the luminescence signal was stable in the cell culture medium for nearly 4-6 hours.

[4] = cited from earlier work
[5] = Stability of luciferase activity in supernatants after freezing and thawing; type: physicochemical; details: supernatants frozen, thawed two weeks later
Excerpt: Two weeks later, the supernatants were thawed and then re-assayed after addition of coeloentrazine.

In the case of Brentuximab vedotin, the “GLuc activity in cell supernatant normalized for GLuc activity in cell lysates” value (L428-GLuc cells) is reported as “significant increase in GLuc activity in cell supernatant”, the “GLuc activity in the supernatant” value (L428-GLuc cells; not normalized) is reported as “increase in GLuc activity in the supernatant” and the “GLuc activity in cell supernatant normalized for GLuc activity in cell lysates” value (KMH2-GLuc cells) is reported as “significant increase in GLuc activity in cell supernatant”. For the same molecule, the “GLuc activity in the supernatant” value (KMH2-GLuc cells; not normalized) was “increase in GLuc activity in the supernatant”, the “GLuc activity in cell supernatant normalized for GLuc activity in cell lysates” value (Jurkat-GLuc cells) was “significant increase in GLuc activity in cell supernatant” and the “GLuc activity in the supernatant” value (Jurkat-GLuc cells; not normalized) was “increase in GLuc activity in the supernatant”.

For `COc1c(C)cnc(Cn2cnc3c(Cl)nc(N)nc32)c1C` [BIIB021], the “GLuc activity in the supernatant normalized to cell lysates” value (BC-3-pLenti-GLuc cells) was “significant increase in GLuc activity in the supernatant” and the “GLuc activity in the supernatant normalized to cell lysates” value (BCBL-1-pLenti-GLuc cells) was “significant increase in GLuc activity in the supernatant”.

In the case of `Cc1ccc(NC(=O)c2ccc(CN3CCN(C)CC3)cc2)cc1Nc1nccc(-c2cccnc2)n1` [Imatinib], the “CAR-T cell induced cell death (GLuc activity)” value [1] is reported as “no effect”.

In the case of “rituximab: Rituximab monoclonal antibody, obtained from Genentech”, the luciferase activity ([2]; RAJI cells stably expressing NLuc) is reported as “Essentially similar results”, the “increase in GLuc activity” value ([2]; in the presence of PBMC, 4 hours, vs untreated cells) is reported as “greater than 10 fold” and the luciferase activity ([2]; in the presence of PBMC, 1 μg/ml and 10 μg/ml) is reported as “increase in luciferase activity”. The luciferase activity ([2]; rituximab alone, 1 μg/ml and 10 m/ml, 4 hours, vs untreated cells) was “increase in luciferase activity”.

For `Cc1sc2c(c1C)C(c1ccc(Cl)cc1)=N[C@@H](CC(=O)OC(C)(C)C)c1nnc(C)n1-2` [JQ1], the “GLuc activity in the supernatant normalized to cell lysates” value (BC-3-pLenti-GLuc cells) was “significant increase in GLuc activity in the supernatant” and the “GLuc activity in the supernatant normalized to cell lysates” value (BCBL-1-pLenti-GLuc cells) was “significant increase in GLuc activity in the supernatant”.

B1: TLuc16: TurboLuc16, SEQ ID NO: 33 (protein)
chain: MEAEAERGKLPGKKLPLEVLIELEANARKAGCTRGCLICLSKIKCTAKMKKYIPGRCADYGGDKKTGQAGIVGAIVDIPEISGFKEMEPMEQFIAQVDRCADCTTGCLKGLANVKCSDLLKKWLPGRCATFADKIQSEVDNIKGLAGD
modifications: TLuc (TurboLuc16)
In the case of B1, the “time for which luminescence was stable” value [3] is reported as 24 h.

B2: NLuc: NanoLuc, SEQ ID NO: 32 (protein)
chain: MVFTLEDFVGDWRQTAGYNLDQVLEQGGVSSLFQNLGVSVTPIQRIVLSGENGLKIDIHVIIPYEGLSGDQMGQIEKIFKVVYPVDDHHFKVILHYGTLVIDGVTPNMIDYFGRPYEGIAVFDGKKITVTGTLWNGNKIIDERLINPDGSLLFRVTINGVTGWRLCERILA
modifications: NLuc (NanoLuc)
In the case of B2, the “time for which luminescence was stable” value [3] is listed as 24 h, the “time activity is retained in culture medium” value ([4]; 37° C.) is listed as over 15 h and the “specific activity relative to firefly or Renilla luciferases” value ([4]; configured for glow-type assays) is listed as about 150 fold.

B3: Renilla Luc: Renilla Luc, SEQ ID NO: 49 (protein)
chain: MASKVYDPEQRKRMITGPQWWARCKQMNVLDSFINYYDSEKHAENAVIFLHGNAASSYLWRHVVPHIEPVARCIIPDLIGMGKSGKSGNGSYRLLDHYKYLTAWFELLNLPKKIIFVGHDWGACLAFHYSYEHQDKIKAIVHAESVVDVIESWDEWPDIEEDIALIKSEEGEKMVLENNFFVETMLPSKIMRKLEPEEFAAYLEPFKEKGEVRRPTLSWPREIPLVKGGKPDVVQIVRNYNAYLRASDDLPKMFIESDPGFFSNAIVEGAKKFPNTEFVKVKGLHFSQEDAPDEMGKYIKSFVERVLKNEQ
modifications: RLuc (Renilla Luc)
For B3, the “luciferase activity after freezing and thawing” value [5] was “no major change”.

B4: LucPPe-146-1H2: thermostable luciferase from Photuris pennsylvanica, SEQ ID NO: 51 (protein)
chain: MADKNILYGPEPFYPLEDGTAGEQMFDALSRYAAIPGCIALTNAHTKENVLYEEFLKLSCRLAESFKKYGLKQNDTIAVCSENSLQFFLPVIASLYLGIIVAPVNDKYIERELIHSLGIVKPRIVFCSKNTFQKVLNVKSKLKSIETIIILDLNEDLGGYQCLNNFISQNSDSNLDVKKFKPYSFNRDDQVASIMFSSGTTGLPKGVMLTHKNIVARFSIAKDPTFGNAINPTSAILTVIPFHHGFGMMTTLGYFTCGFRVVLMHTFEEKLFLQSLQDYKVESTLLVPTLMAFLAKSALVEKYDLSHLKEIASGGAPLSKEIGEMVKKRFKLNFVRQGYGLTETTSAVLITPKGDAKPGSTGKIVPLHAVKVVDPTTGKILGPNEPGELYFKGPMIMKGYYNNEEATKAIIDNDGWLRSGDIAYYDNDGHFYIVDRLKSLIKYKGYQVAPAEIEGILLQHPYIVDAGVTGIPDEAAGELPAAGVVVQTGKYLNEQIVQDYVASQVSTAKWLRGGVKFLDEIPKGSTGKIDRKVLRQMLEKHTNG
modifications: LucPPe-146-1H2
With B4 the “time for which luminescence signal was stable in the cell culture medium” value ([3]; supernatants of K562 LucPPe-146-1H2 cells) was 4 to 6 h.

B5: Mluc7: Metrida longa Luc7 M43L/M110L variant, SEQ ID NO: 34 (protein)
chain: MNPTVNNDVNRGKMPGKKLPLEVLIELEANAFKAGCTRGCLICLSKIKCTAKMKQYIPGRCHDYGGDKKTGQAGIVGAIVDIPEISGFKEMEPLEQFIAQVDLCADCTTGCLKGLANVKCSELLKKWLPDRCASFADKIQKEAHNIKGLAGDR
modifications: MLuc7 (Metrida longa Luc7) M43L/M110L variant
For B5, the “time for which luminescence was stable” value [3] was 24 h.
